Patent US4737505A, “Analgesic 4-substituted indoles” (priority 1984, dated 1988)
Read-outs that look alike come from different tables or passages of the source.

Columns and labels:
opiate receptor K = target: T1, opiate receptor K (Cavia porcellus, UniProt P41144); assay: Bond to the opiate receptor K in vitro (displacement of 3H Ethylketocyclazocin, guinea-pig cerebellum membranes); format: binding; conditions: for IC50: 3H Ethylketocyclazocin 1 nM, guinea-pig cerebellum membranes, Tris buffer pH 7.7, 25° C., 40 minutes, read-out: 50% inhibiting concentration (IC50); for relative bond affinity (RBA): relative to product U 50 488 H as reference
T1 construct: Membrane residues prepared from guinea-pig cerebellum; from tissue; host or cells: guinea-pig cerebellum membranes
Method: (2) Bond to the opiate receptor K in vitro
Membrane residues prepared from guinea-pig cerebellum kept at -30° C. for about 30 days were used and these residues were suspended in Tris buffer pH 7.7. Fractions of 2 ml were distributed into hemolysis tubes, and […] Ethylketocyclazocin 1 nM and the product to be studied were added. The products were first tested to 5×10^-6 M in triplicate. When the products tested displaced more than 50% of the radioactivity specifically linked to the receptor, they were tested again according to a range of 7 doses to determine the dose which inhibited by 50% the radioactivity specifically linked to the receptor. In this way, the 50% inhibiting concentration was determined.
The non-specific bond was determined by the addition of a product known as U 50488 H(ref. Up. John) to 10^-5 M in triplicate. After incubating at 25° C. for 40 minutes, returning to the water-bath at 0° C. for 5 minutes, filtering under reduced pressure, and rinsing in Tris buffer pH 7.7, the radioactivity was counted in the presence of scintillating Trition. The results were expressed: either directly as 50% inhibiting concentration (IC50), that is as a concentration of the product studied, expressed in nM, necessary to displace 50% of the specific radioactivity fixed on the receptor studied, or in relative bond affinity (=RBA) taking the product U 50 488 H as reference [formula]

opiate receptor μ = target: T2, opiate receptor μ (Rattus norvegicus, UniProt P33535); assay: Bond to the opiate receptor μ in vitro (displacement of 3H dihydromorphine, rat brain membranes); format: binding, rats; conditions: for IC50: 3H dihydromorphine 0.7 nM, rat brain membranes, Tris buffer pH 7.7, 25° C., 40 minutes, read-out: 50% inhibiting concentration (IC50); for relative bond affinity (RBA): relative to morphine=100
T2 construct: prepared from brains of rats; from tissue; host or cells: rat brain membranes
Method: (1) Bond to the opiate receptor μ in vitro
Membrane residues preserved at -30° C. for about 30 days and prepared from brains of rats were used in this test and these residues were suspended in Tris buffer pH 7.7. Fractions of 2 ml were distributed into hemolysis tubes and ^3 H dihydromorphine 0.7 nM and the product to be studied were added. The products were first of all tested with 5×10^-6 M in triplicate. When the tested products displaced more than 50% of the radioactivity specifically linked to the receptor, they were tested again according to a range of 7 doses to determine the dose which inhibited by 50% the radioactivity specifically linked to the receptor. The 50% inhibiting concentration was thus determined.
The non-specific bond was determined by addition of 10^-5 M morphine in triplicate. After incubating at 25° C. for 40 minutes, returning to the water-bath at 0° C. for 5 minutes, filtering under vacuum, rinsing with Tris buffer pH 7.7, the radioactivity was counted in the presence of scintillating Trition. The results were expressed: either directly as 50% inhibiting concentration (IC50), that is as a concentration of the product studied, expressed in nM, necessary to displace 50% of the specific radioactivity fixed on the receptor studied, or in relative bond affinity (RBA), taking morphine=100 as a reference [formula]

[1] = Analgesic activity, warm plate test; format: in vivo; conditions: Mus musculus, 1 h, female mice, 56° C. plate, 60 minutes after treatment, read-out: AD100 (dose which increased the reaction time by 100%)
Method: Female mice weighing from 22 to 24 g were placed one by one on a copper plate maintained at 56° C. The reaction to pain was shown by the animals licking their front paws and the time of this reaction was noted and was only retained when the mice reacted in less than 8 seconds. The animals were divided into equal groups and were treated with the products to be studied, one group receiving only the vehicle. The time of reaction to pain was again measured 30 to 60 minutes after the treatment and the active dose or AD100 was the dose which increased the reaction time by 100%, 60 minutes after the treatment, taking account of the variations of the reaction time of the control animals.

T2 sequence (P33535 whole entry): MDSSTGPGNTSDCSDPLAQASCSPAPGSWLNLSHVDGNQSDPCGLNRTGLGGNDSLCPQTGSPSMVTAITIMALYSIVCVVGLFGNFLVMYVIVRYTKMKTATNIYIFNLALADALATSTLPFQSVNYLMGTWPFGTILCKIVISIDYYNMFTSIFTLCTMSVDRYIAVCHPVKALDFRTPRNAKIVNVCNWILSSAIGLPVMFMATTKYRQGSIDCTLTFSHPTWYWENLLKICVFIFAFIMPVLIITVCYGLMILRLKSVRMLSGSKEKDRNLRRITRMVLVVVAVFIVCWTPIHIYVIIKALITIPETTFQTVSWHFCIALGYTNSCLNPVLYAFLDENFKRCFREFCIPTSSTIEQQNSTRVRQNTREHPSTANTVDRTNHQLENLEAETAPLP
T1 sequence (P41144 whole entry): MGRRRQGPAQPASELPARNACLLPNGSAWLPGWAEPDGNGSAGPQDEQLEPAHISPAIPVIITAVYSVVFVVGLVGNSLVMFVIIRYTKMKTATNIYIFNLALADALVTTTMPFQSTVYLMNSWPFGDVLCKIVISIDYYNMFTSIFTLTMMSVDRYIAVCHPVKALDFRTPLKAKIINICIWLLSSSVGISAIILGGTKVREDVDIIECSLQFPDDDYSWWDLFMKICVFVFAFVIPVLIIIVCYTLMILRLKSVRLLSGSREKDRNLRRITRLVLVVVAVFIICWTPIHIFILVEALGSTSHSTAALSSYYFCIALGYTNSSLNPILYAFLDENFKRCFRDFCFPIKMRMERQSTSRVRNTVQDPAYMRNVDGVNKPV

SMILES	IC50 (opiate receptor K) [µM]	relative bond affinity (RBA) (opiate receptor K)	IC50 (opiate receptor μ) [µM]	relative bond affinity (RBA) (opiate receptor μ)	ED (100% increase in reaction time) ([1]; oral route) [mg/kg]	ED (100% increase in reaction time) ([1]; central, intracerebral ventricle route) [mg/kg]
CCCN1CC=C(c2cccc3[nH]ccc23)CC1 [Example 7, 4-(1-propyl-1,2,3,6-tetrahydropyridin-4-yl)-1H-indole]	0.182	1.4	–	–	–	–
C=CCOc1ccccc1OCC(O)CN1CC=C(c2cccc3[nH]ccc23)CC1 (stereo not drawn) [Example 11, 4-(1H-indol-4-yl)-α-[[2-(2-propenyloxy)-phenoxy]-methyl]-1,2,3,6-tetrahydro-1-pyridine ethanol]	–	–	0.00943	22.43	–	–
C=CCOc1ccccc1OCC(O)CN1CC=C(c2cccc3c2CC(=O)N3)CC1 (centres unmarked) [Example 13, 1,3-dihydro-4-[1-[2-hydroxy-3-[2-(2-propenyloxy)-phenoxy]propyl]-1,2,3,6-tetrahydro-4-pyridinyl]-2H-indol-2-one]	–	–	0.0014	270	20	–
COC1(c2cccc3[nH]ccc23)CCNCC1 [Example 14, 4-(4-methoxy-4-piperidinyl)-1H-indole]	–	–	0.028	13	–	0.5
Cl.O=C1Cc2c(cccc2C2=CCN(CCc3ccccc3)CC2)N1 [Example 26, 1,3-dihydro-4-[1-(2-phenylethyl)-1,2,3,6-tetrahydro-4-pyridinyl]-2H-indole-2-one hydrochloride]	–	–	0.059	8.2	–	–
Cl.O=C1Cc2c(cccc2C2=CCN(CCOc3ccccc3)CC2)N1 [Example 29, 1,3-dihydro-4-[1-(2-phenoxyethyl)-1,2,3,6-tetrahydro-4-pyridinyl]-2H-indol-2-one hydrochloride]	0.152	1.1	0.011	23	–	–
Cl.O=C1Cc2c(cccc2C2=CCN(CCCC(=O)c3ccc(F)cc3)CC2)N1 [Example 32, 1,3-dihydro-4-[1-[(4-fluorophenyl)-4-oxobutyl]-1,2,3,6-tetrahydropyridin-4-yl]-2H-indole-2-one hydrochloride]	0.46	1.3	0.0035	62	–	–
